Source: paper PMC10179937, “Cytotoxic Activity, Topoisomerase I Inhibition and In Silico Studies of New Sesquiterpene-aryl Ester Derivatives of (-) Drimenol” (Molecules, 2023)
Like-named read-outs stand apart in the source and are kept apart here.

Key:
[1] = tested on: PC-3 (prostate adenocarcinoma); test: Sulforhodamine B in vitro growth inhibition assay, PC-3; assay type: cell-based, human; details: for IC50: Homo sapiens, sulforhodamine B assay, 72 h of treatment, IC50 ± SD; for Selectivity Index (SI) MCF-10/PC-3: IC50 in non-cancerogenic cell line / IC50 in cancer cell line
Experimental: (§1) For this purpose, a colorimetric sulforhodamine B assay was performed to quantify the cytotoxic effect through their respective IC50 values. Each compound’s serial dilutions (12.5, 25, 50, and 100 µM) were evaluated in triplicate. In our study, the human cancer cell lines used were MCF-7 (breast adenocarcinoma); HT-29 (colorectal adenocarcinoma); PC-3 (prostate adenocarcinoma); and MCF-10 control cells (normal breast epithelium). For comparative purposes, the literature IC50 values of daunorubicin and 5-fluorouracil (5-FU), measured in the same cell lines and under the same experimental conditions, were included. Similarly, drimenol (1) was included for comparative purposes.
(§2) The sulforhodamine B assay was used. Briefly, the cells were set up at 5 × 10^3 cells per well of a 96-well microplate for 18 h. Cells were incubated at 37 °C in a humidified 5% CO2/95% air mixture and treated with the compounds at different concentrations for 72 h. At the end of drug exposure, cells were fixed with 50% trichloroacetic acid at 4 °C. After washing with distilled water, cells were stained with 0.1% sulforhodamine B, dissolved in 1% acetic acid (50 μL/well) for 30 min, and, subsequently, washed with 1% acetic acid to remove the unbound stain. The protein-bound stain was solubilized with 100 μL of 10 mM unbuffered Tris base, and the cell density was determined using a […] (wavelength 540 nm). Results are expressed as IC50 values (μM) ± SD.

[2] = tested on: MCF-7 (breast adenocarcinoma); test: Sulforhodamine B in vitro growth inhibition assay, MCF-7; assay type: cell-based, human; details: for IC50: Homo sapiens, MCF7, sulforhodamine B assay, 72 h of treatment, IC50 ± SD; for Selectivity Index (SI) MCF-10/MCF-7: IC50 in non-cancerogenic cell line / IC50 in cancer cell line
Experimental: as §1, §2

[3] = tested on: caspases 3 and 7 on MCF-7 cells; test: Caspase-Glo 3/7 assay; assay type: cell-based, human; details: 50 μM, 24 h
Experimental: To determine the cell death type induced by the most promising aryl-drimane esters, we evaluated their capacity to induce apoptosis through the activation of caspases 3 and 7 on MCF-7 cells. For this purpose, 6a, 6e, 6f, 8c, 8f, and 8g were incubated for 24 h on MCF-7 cells at a concentration of 50 μM, close to the IC50 values for cytotoxicity in most compounds. […] In summary, these drimane derivatives induced apoptosis in the MCF-7 cell line, showing a potential antitumoral effect.
The activity of caspase 3/7 in treated MCF-7 cells was determined using a Caspase-Glo-3/7 Assay kit (Promega, UK—Cat. No G8090). The caspase-Glo 3/7 assay is a homogenous, luminescent assay that measures caspase-3 and -7 activities, both key-players in apoptosis. […] Luminescence was proportional to the amount of caspase present. MCF-7 cells (1 × 10^4 cells per well) were grown in a 96-well white plate and were allowed to adhere overnight. The cells were then treated for 24 h with the synthesized compounds (50 µM), with the inclusion of a blank as a control. After treatment, the Caspase-Glo® 3/7 was prepared according to the manufacturer’s guidelines. Briefly, 100 μL of Caspase-Glo 3/7 reagent was added to 100 μL of culture medium containing the cells previously treated in each well. The content was mixed gently by placing the plate on a shaker for 30 s, and the plate was incubated at room temperature in the dark for 1 h before luminescence was read on a luminometer (Berthold Sirius Single Tube Luminometer, Pforzheim, Germany). Fold change in caspase activity was obtained by first subtracting the luminescence value for the blank well from every other value, and then, expressing the average luminescence of each treatment as a fold change with respect to the average luminescence of the negative control.

[4] = tested on: HT-29 (colorectal adenocarcinoma); test: Sulforhodamine B in vitro growth inhibition assay, HT-29; assay type: cell-based, human; details: for IC50: Homo sapiens, HT-29, sulforhodamine B assay, 72 h of treatment, IC50 ± SD; for Selectivity Index (SI) MCF-10/HT-29: IC50 in non-cancerogenic cell line / IC50 in cancer cell line
Experimental: as §1, §2

[5] = tested on: MCF-10 control cells (normal breast epithelium); test: Sulforhodamine B in vitro growth inhibition assay, MCF-10 control cells; assay type: cell-based; details: Homo sapiens, MCF10, 72 h of treatment, IC50 ± SD, non-tumoral cells
Experimental: as §1, §2

[6] = tested on: MCF-7 (breast adenocarcinoma); details: cited from earlier work; for IC50: literature value, same experimental conditions
[7] = tested on: PC-3 (prostate adenocarcinoma); details: literature value, same experimental conditions; cited from earlier work
[8] = tested on: HT-29 (colorectal adenocarcinoma); design: method as in PMID 25412045; details: literature value, same experimental conditions; cited from earlier work
[9] = tested on: MCF-10 control cells (normal breast epithelium); details: literature value; cited from earlier work

Structure (SMILES) | IC50 [1] [µM] | IC50 [2] [µM] | caspases-3/7 activity over the control [3] | IC50 [4] [µM] | IC50 [5] [µM] | melting point [°C] | Selectivity Index (SI) MCF-10/PC-3 [1] | Selectivity Index (SI) MCF-10/MCF-7 [2] | Selectivity Index (SI) MCF-10/HT-29 [4] | IC50 [6] [µM] | cytotoxicity ([6]; two cell lines, ref Montenegro et al.) | IC50 [7] [µM] | IC50 [8] [µM] | IC50 [9] [µM]
COc1ccc(C(=O)OC[C@H]2C(C)=CCC3C(C)(C)CCC[C@@]32C)c(OC)c1OC (stereo partly drawn) [8f, ((1S,8aS)-2,5,5,8a-tetramethyl-1,4,4a,5,6,7,8,8a-octahydronaphthalen-1-yl)methyl-2,3,4-trimethoxybenzoate] | 7.1 ± 1.1 | 6.2 ± 0.5 | 3.5 fold | 26.2 ± 5.4 | 6.8 ± 0.9 | – | – | – | – | – | – | – | – | –
COC(=O)c1c(C)cc(OC(=O)C2=C(C)CCC3C(C)(C)CCC[C@]23C)cc1O (stereo partly drawn) [6c, 3-Hydroxy-4-(methoxycarbonyl)-5-methylphenyl-(8aS)-2,5,5,8a-tetramethyl-3,4,4a,5,6,7,8,8a-octahydronaphthalene-1-carboxylate] | > 100 | > 100 | – | > 100 | > 100 | 124 | – | – | – | – | – | – | – | –
COc1cc(OC)c(C(=O)OC[C@H]2C(C)=CCC3C(C)(C)CCC[C@@]32C)cc1OC (stereo partly drawn) [8g, ((1S,8aS)-2,5,5,8a-tetramethyl-1,4,4a,5,6,7,8,8a-octahydronaphthalen-1-yl)methyl-2,4,5-trimethoxybenzoate] | 27.7 ± 2.6 | 28.7 ± 3.5 | 3.5 fold | 31.3 ± 2 | 16.3 ± 0.6 | – | 0.6 | 0.6 | 0.5 | – | – | – | – | –
COc1cc(OC(=O)C2=C(C)CCC3C(C)(C)CCC[C@]23C)ccc1C=O (stereo partly drawn) [6e, 4-Formyl-3-methoxyphenyl-(8aS)-2,5,5,8a-tetramethyl-3,4,4a,5,6,7,8,8a-octahydronaphthalene-1-carboxylate] | 52.9 ± 8.2 | 38.3 ± 2.6 | two-fold | 38.1 ± 2 | 50 ± 8.9 | – | 0.9 | 1.3 | 1.3 | – | – | – | – | –
COc1cc(C(=O)OC[C@H]2C(C)=CCC3C(C)(C)CCC[C@@]32C)cc(OC)c1C (stereo partly drawn) [8b, ((1S,8aS)-2,5,5,8a-tetramethyl-1,4,4a,5,6,7,8,8a-octahydronaphthalen-1-yl)methyl 3,5-dimethoxy-4-methylbenzoate] | > 100 | > 100 | – | > 100 | 21.2 ± 3.1 | – | – | – | – | – | – | – | – | –
COc1cc(C)cc(OC(=O)C2=C(C)CCC3C(C)(C)CCC[C@]23C)c1 (stereo partly drawn) [6b, 3-Methoxy-5-methylphenyl-(8aS)-2,5,5,8a-tetramethyl-3,4,4a,5,6,7,8,8a-octahydronaphthalene-1-carboxylate] | > 100 | > 100 | – | > 100 | 67.2 ± 15.3 | – | – | – | – | – | – | – | – | –
CC1=CCC2C(C)(C)CCCC2(C)C1CO (stereo not drawn) [Drimenol] | – | – | – | – | – | – | – | – | – | > 100 | inactive | > 100 | – | –
COc1cc(C(=O)OC[C@H]2C(C)=CCC3C(C)(C)CCC[C@@]32C)cc(OC)c1O (stereo partly drawn) [8d, ((1S,8aS)-2,5,5,8a-tetramethyl-1,4,4a,5,6,7,8,8a-octahydronaphthalen-1-yl)methyl-4-hydroxy-3,5-dimethoxybenzoate] | 33.3 ± 2.9 | 18.4 ± 0.5 | – | 44.7 ± 6.7 | 16.5 ± 0.5 | 105 | 0.5 | 0.9 | 0.4 | – | – | – | – | –
COc1cc(OC)cc(C(=O)OC[C@H]2C(C)=CCC3C(C)(C)CCC[C@@]32C)c1 (stereo partly drawn) [8a, ((1S,8aS)-2,5,5,8a-tetramethyl-1,4,4a,5,6,7,8,8a-octahydronaphthalen-1-yl)methyl-3,5-dimethoxybenzoate] | > 100 | > 100 | – | > 100 | 44.8 ± 3.1 | – | – | – | – | – | – | – | – | –
COC(=O)c1c(C)cc(OC(=O)C2=C(C)CCC3C(C)(C)CCC[C@]23C)c(C)c1O (stereo partly drawn) [6d, 3-Hydroxy-4-(methoxycarbonyl)-2,5-dimethylphenyl-(8aS)-2,5,5,8a-tetramethyl-3,4,4a,5,6,7,8,8a-octahydronaphthalene-1-carboxylate] | > 100 | > 100 | – | > 100 | > 100 | 128 | – | – | – | – | – | – | – | –
CC1=CCC2C(C)(C)CCC[C@]2(C)[C@H]1COC(=O)c1cc(O)c(C)c(O)c1 (stereo partly drawn) [8c, ((1S,8aS)-2,5,5,8a-tetramethyl-1,4,4a,5,6,7,8,8a-octahydronaphthalen-1-yl)methyl-3,5-dihydroxy-4-methylbenzoate] | > 100 | 35.9 ± 6.4 | two-fold | > 100 | > 100 | – | – | – | – | – | – | – | – | –
COc1cc(C=O)ccc1OC(=O)C1=C(C)CCC2C(C)(C)CCC[C@]12C (stereo partly drawn) [6f, 4-Formyl-2-methoxyphenyl-(8aS)-2,5,5,8a-tetramethyl-3,4,4a,5,6,7,8,8a-octahydronaphthalene-1-carboxylate] | 30.9 ± 2.5 | 22.4 ± 1 | two-fold | 58 ± 3.9 | 16.5 ± 0.9 | – | 0.5 | 0.7 | 0.3 | – | – | – | – | –
O=c1[nH]cc(F)c(=O)[nH]1 [5-FU, 5-fluorouracil] | – | – | – | – | – | – | 0.03 | 0.02 | 0.2 | 22.3 ± 0.2 | – | 16.4 ± 0.6 | 2.9 ± 0.7 | < 0.5
COc1cc(C(=O)OC[C@H]2C(C)=CCC3C(C)(C)CCC[C@@]32C)cc(OC)c1OC (stereo partly drawn) [8e, ((1S,8aS)-2,5,5,8a-tetramethyl-1,4,4a,5,6,7,8,8a-octahydronaphthalen-1-yl)methyl-3,4,5-trimethoxybenzoate] | 76.9 ± 10.2 | 51 ± 10 | – | 51.5 ± 3.2 | 32.1 ± 8.3 | – | 0.4 | 0.6 | 0.6 | – | – | – | – | –
